This note sets out measurements from patent publication US8134015B2, “Compound inhibiting in vivo phosphorous transport and medicine containing the same” (Kyowa Hakko Kirin Co., Ltd., priority 2003, dated 2012).

The target of the test is T1, rat NaPi-2b (Rattus norvegicus, UniProt Q9JJ09).
T1 construct: expressed in transfected cells; host or cells: Xenopus oocytes injected with cRNA
T1 sequence (Q9JJ09 1-695): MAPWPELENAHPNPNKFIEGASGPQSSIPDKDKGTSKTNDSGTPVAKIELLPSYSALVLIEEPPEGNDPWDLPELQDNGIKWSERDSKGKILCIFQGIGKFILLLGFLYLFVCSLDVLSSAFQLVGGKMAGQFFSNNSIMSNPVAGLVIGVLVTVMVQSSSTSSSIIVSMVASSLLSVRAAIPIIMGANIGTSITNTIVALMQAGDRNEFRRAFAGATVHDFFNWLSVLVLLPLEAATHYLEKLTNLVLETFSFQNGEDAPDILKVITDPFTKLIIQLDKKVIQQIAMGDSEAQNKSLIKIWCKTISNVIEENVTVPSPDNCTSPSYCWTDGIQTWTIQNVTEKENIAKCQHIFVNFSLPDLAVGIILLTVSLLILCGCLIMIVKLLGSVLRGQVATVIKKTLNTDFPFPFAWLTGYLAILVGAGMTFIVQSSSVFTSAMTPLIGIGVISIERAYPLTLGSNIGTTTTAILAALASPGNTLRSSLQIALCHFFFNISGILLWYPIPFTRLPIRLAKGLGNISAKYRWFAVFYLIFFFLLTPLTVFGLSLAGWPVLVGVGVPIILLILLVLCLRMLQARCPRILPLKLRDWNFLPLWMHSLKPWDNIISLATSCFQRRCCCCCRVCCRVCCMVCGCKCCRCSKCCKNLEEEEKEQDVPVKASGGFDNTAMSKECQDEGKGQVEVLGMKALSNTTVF
Kind of test: Sodium-dependent phosphate uptake of Xenopus oocytes which expressed NaPi-2b (32P). Format: cell-based. As to conditions: for inhibition at 300 µM: phosphate uptake, oocytes expressing rat NaPi-2b, determined from inhibition curve; for IC50: Xenopus oocytes expressing rat NaPi-2b, 32P radioactive phosphorus, read-out: IC50 (phosphate uptake inhibitory activity). The method, boiled down:
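Rat NaPi-2b cloned from small-intestine cDNA; cRNA injected into Xenopus oocytes, expression for 2 days. Phosphate uptake inhibition measured with 32P; percent inhibition at 300 μM and 100 μM read from the same inhibition curve.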

A word on the inhibition: it is the percentage by which the read-out fell short of the control. Read a high inhibition as a response far below the control. The term IC50 denotes the concentration that inhibits the measured activity by half.

Consider `CN(CCCNCc1ccc(C(=O)Nc2ccc(Br)cc2C(=O)N/N=C/c2cccc(F)c2)cc1)c1ccccc1` [Compound 760, N-[4-Bromo-2-(3-fluoro-benzylidene-hydrazinocarbonyl)-phenyl]-4-{[3-(methyl-phenyl-amino)-propylamino]-methyl}-benzamide], for which the inhibition at 300 µM is 73.3%.

Regarding `CN(CCCNCc1ccc(C(=O)Nc2ccc(Br)cc2C(=O)N/N=C/c2ccc(Cl)c(C(F)(F)F)c2)cc1)c1ccccc1` [Compound 761, N-[4-Bromo-2-(4-chloro-3-trifluoromethyl-benzylidene-hydrazinocarbonyl)-phenyl]-4-{[3-(methyl-phenyl-amino)-propylamino]-methyl}-benzamide], 300 µM produced 46.2% inhibition.

The molecule `COc1ccc(/C=N/NC(=O)c2cc(Br)ccc2NC(=O)c2ccc(CNCCCN(C)c3ccccc3)cc2)cc1` [Compound 762, N-[4-Bromo-2-(4-methoxy-benzylidene-hydrazinocarbonyl)-phenyl]-4-{[3-(methyl-phenyl-amino)-propylamino]-methyl}-benzamide] registered an inhibition at 300 µM of 52.1%.

In the case of `COc1cccc(/C=N/NC(=O)c2cc(Br)ccc2NC(=O)c2ccc(CNCCCN(C)c3ccccc3)cc2)c1` [Compound 763, N-[4-Bromo-2-(3-methoxy-benzylidene-hydrazinocarbonyl)-phenyl]-4-{[3-(methyl-phenyl-amino)-propylamino]-methyl}-benzamide], the IC50 was found to be 11.2 µM.

For `CCSCCNCc1ccc(C(=O)Nc2ccc(Br)cc2C(=O)N/N=C/c2ccc(C)c(C)c2)cc1` [Compound 764, N-[4-Bromo-2-(3,4-dimethyl-benzylidene-hydrazinocarbonyl)-phenyl]-4-[(2-ethylsulfanyl-ethylamino)-methyl]-benzamide], the IC50 was found to be 5.92 µM.

For the molecule `CCSCCNCc1ccc(C(=O)Nc2ccc(Br)cc2C(=O)N/N=C/c2ccc(C)cc2)cc1` [Compound 765, N-[4-Bromo-2-(4-methyl-benzylidene-hydrazinocarbonyl)-phenyl]-4-[(2-ethylsulfanyl-ethylamino)-methyl]-benzamide], the IC50 worked out at 6.88 µM.

The molecule `CCSCCNCc1ccc(C(=O)Nc2ccc(Br)cc2C(=O)N/N=C/c2cccc(C)c2)cc1` [Compound 766, N-[4-Bromo-2-(3-methyl-benzylidene-hydrazinocarbonyl)-phenyl]-4-[(2-ethylsulfanyl-ethylamino)-methyl]-benzamide] registered an inhibition at 300 µM of 81.9%.

Molecule `CCSCCNCc1ccc(C(=O)Nc2ccc(Br)cc2C(=O)N/N=C/c2ccc(F)cc2)cc1` [Compound 767, N-[4-Bromo-2-(4-fluoro-benzylidene-hydrazinocarbonyl)-phenyl]-4-[(2-ethylsulfanyl-ethylamino)-methyl]-benzamide] yielded an inhibition at 300 µM of 81.8%.

On to `CCSCCNCc1ccc(C(=O)Nc2ccc(Br)cc2C(=O)N/N=C/c2cccc(F)c2)cc1` [Compound 768, N-[4-Bromo-2-(3-fluoro-benzylidene-hydrazinocarbonyl)-phenyl]-4-[(2-ethylsulfanyl-ethylamino)-methyl]-benzamide], for which the IC50 was found to be 10.6 µM.

For `CCSCCNCc1ccc(C(=O)Nc2ccc(Br)cc2C(=O)N/N=C/c2ccc(Cl)c(C(F)(F)F)c2)cc1` [Compound 769, N-[4-Bromo-2-(4-chloro-3-trifluoromethyl-benzylidene-hydrazinocarbonyl)-phenyl]-4-[(2-ethylsulfanyl-ethylamino)-methyl]-benzamide], the half-maximal inhibitory concentration (IC50) is 4.44 µM.

Regarding `CCSCCNCc1ccc(C(=O)Nc2ccc(Br)cc2C(=O)N/N=C/c2ccc(OC)cc2)cc1` [Compound 770, N-[4-Bromo-2-(4-methoxy-benzylidene-hydrazinocarbonyl)-phenyl]-4-[(2-ethylsulfanyl-ethylamino)-methyl]-benzamide], the IC50 is 16.5 µM.

`CCSCCNCc1ccc(C(=O)Nc2ccc(Br)cc2C(=O)N/N=C/c2cccc(OC)c2)cc1` [Compound 771, N-[4-Bromo-2-(3-methoxy-benzylidene-hydrazinocarbonyl)-phenyl]-4-[(2-ethylsulfanyl-ethylamino)-methyl]-benzamide] yielded an inhibition at 300 µM of 85.1%.

Consider `Cc1ccc(/C=N/NC(=O)c2cc(Br)ccc2NC(=O)c2ccc(CN3CCN(c4ccccn4)CC3)cc2)cc1C` [Compound 772, N-[4-Bromo-2-(3,4-dimethyl-benzylidene-hydrazinocarbonyl)-phenyl]-4-(4-pyridin-2-yl-piperazin-1-ylmethyl)-benzamide], for which the inhibition at 300 µM stood at 67.7%.

Take `Cc1ccc(/C=N/NC(=O)c2cc(Br)ccc2NC(=O)c2ccc(CN3CCN(c4ccccn4)CC3)cc2)cc1` [Compound 773, N-[4-Bromo-2-(4-methyl-benzylidene-hydrazinocarbonyl)-phenyl]-4-(4-pyridin-2-yl-piperazin-1-ylmethyl)-benzamide]: at 300 µM the inhibition was 53.9%.

Molecule `O=C(Nc1ccc(Br)cc1C(=O)N/N=C/c1ccc(F)cc1)c1ccc(CN2CCN(c3ccccn3)CC2)cc1` [Compound 774, N-[4-Bromo-2-(4-fluoro-benzylidene-hydrazinocarbonyl)-phenyl]-4-(4-pyridin-2-yl-piperazin-1-ylmethyl)-benzamide] had an inhibition at 300 µM of 58.9%.

`O=C(Nc1ccc(Br)cc1C(=O)N/N=C/c1cccc(F)c1)c1ccc(CN2CCN(c3ccccn3)CC2)cc1` [Compound 775, N-[4-Bromo-2-(3-fluoro-benzylidene-hydrazinocarbonyl)-phenyl]-4-(4-pyridin-2-yl-piperazin-1-ylmethyl)-benzamide]: the inhibition at 300 µM turned out to be 44.6%.

The molecule `O=C(Nc1ccc(Br)cc1C(=O)N/N=C/c1ccc(Cl)c(C(F)(F)F)c1)c1ccc(CN2CCN(c3ccccn3)CC2)cc1` [Compound 776, N-[4-Bromo-2-(4-chloro-3-trifluoromethyl-benzylidene-hydrazinocarbonyl)-phenyl]-4-(4-pyridin-2-yl-piperazin-1-ylmethyl)-benzamide] gave an inhibition at 300 µM of 49.2%.

Molecule `COc1ccc(/C=N/NC(=O)c2cc(Br)ccc2NC(=O)c2ccc(CN3CCN(c4ccccn4)CC3)cc2)cc1` [Compound 777, N-[4-Bromo-2-(4-methoxy-benzylidene-hydrazinocarbonyl)-phenyl]-4-(4-pyridin-2-yl-piperazin-1-ylmethyl)-benzamide] had an inhibition at 300 µM of 34.2%.

Regarding `COc1cccc(/C=N/NC(=O)c2cc(Br)ccc2NC(=O)c2ccc(CN3CCN(c4ccccn4)CC3)cc2)c1` [Compound 778, N-[4-Bromo-2-(3-methoxy-benzylidene-hydrazinocarbonyl)-phenyl]-4-(4-pyridin-2-yl-piperazin-1-ylmethyl)-benzamide], the inhibition at 300 µM is 39.1%.

In turn, `CC(O)CN(Cc1cccc(C(=O)Nc2sccc2C(=O)N/N=C/c2ccc(Cl)c(C(F)(F)F)c2)c1)CC(C)O` (centres unmarked) [Compound 779, 3-{[Bis-(2-hydroxy-propyl)-amino]-methyl}-N-[3-(4-chloro-3-trifluoromethyl-benzylidene-hydrazinocarbonyl)-thiophen-2-yl]-benzamide] gave an inhibition at 300 µM of 51.6%.

In turn, `COc1ccc(/C=N/NC(=O)c2ccsc2NC(=O)c2cccc(CN(CC(C)O)CC(C)O)c2)cc1` (centres unmarked) [Compound 780, 3-{[Bis-(2-hydroxy-propyl)-amino]-methyl}-N-[3-(4-methoxy-benzylidene-hydrazinocarbonyl)-thiophen-2-yl]-benzamide] displayed an inhibition at 300 µM of 47.7%.

For the molecule `Cc1ccc(/C=N/NC(=O)c2c(C)csc2NC(=O)c2cccc(CSCCS(=O)(=O)O)c2)cc1C` [Compound 781, 2-{3-[3-(3,4-Dimethyl-benzylidene-hydrazinocarbonyl)-4-methyl-thiophen-2-ylcarbamoyl]-benzylsulfanyl}-ethanesulfonic acid], the inhibition at 300 µM was found to be 51.2%.

The molecule `Cc1ccc(/C=N/NC(=O)c2c(C)csc2NC(=O)c2cccc(CSCCS(=O)(=O)O)c2)cc1` [Compound 782, 2-{3-[4-Methyl-3-(4-methyl-benzylidene-hydrazinocarbonyl)-thiophen-2-ylcarbamoyl]-benzylsulfanyl}-ethanesulfonic acid] gave an inhibition at 300 µM of 86.8%.

`Cc1csc(NC(=O)c2cccc(CSCCS(=O)(=O)O)c2)c1C(=O)N/N=C/c1ccc(F)cc1` [Compound 783, 2-{3-[3-(4-Fluoro-benzylidene-hydrazinocarbonyl)-4-methyl-thiophen-2-ylcarbamoyl]-benzylsulfanyl}-ethanesulfonic acid] registered an inhibition at 300 µM of 88.8%.

Consider `Cc1csc(NC(=O)c2cccc(CSCCS(=O)(=O)O)c2)c1C(=O)N/N=C/c1ccc(Cl)c(C(F)(F)F)c1` [Compound 784, 2-{3-[3-(4-Chloro-3-trifluoromethyl-benzylidene-hydrazinocarbonyl)-4-methyl-thiophen-2-ylcarbamoyl]-benzylsulfanyl}-ethanesulfonic acid], for which the inhibition at 300 µM is 88.5%.

Molecule `COc1ccc(/C=N/NC(=O)c2c(C)csc2NC(=O)c2cccc(CSCCS(=O)(=O)O)c2)cc1` [Compound 785, 2-{3-[3-(4-Methoxy-benzylidene-hydrazinocarbonyl)-4-methyl-thiophen-2-ylcarbamoyl]-benzylsulfanyl}-ethanesulfonic acid] had an inhibition at 300 µM of 39.5%.
